Laboratory results taken from patent US20230203081A1, “LINCOSAMIDE ANTIBIOTICS AND USES THEREOF” (President and Fellows of Harvard College, priority 2020, published 2023).
≈ marks a conversion by molar mass, not a printed value.

Test system: broad panel of different clinical isolates
Test: microbe, parasite or virus in culture
Format: cell-based
How it was run: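 Per CLSI, MICs by broth microdilution or agar dilution; strains other than streptococci and anaerobes were sub-cultured overnight at 35° C on blood agar, with a final broth inoculum of 5×10^5 CFU/mL.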

Work on `CSC1O[C@H]([C@H](NC(=O)[C@H]2NC[C@@H]3C[C@H](CC(C)C)CCO[C@H]32)[C@H](C)Cl)C(O)[C@@H](O)[C@H]1O` (some centres unmarked) [FSA-513018b] yielded an MIC (Acinetobacter baumannii, A. baumannii HAV#651, Clinical) of 4 µg/mL (≈ 8.08 µM), an MIC (Acinetobacter baumannii, A. baumannii HAV#652 Clinical) of 8 µg/mL (≈ 16.2 µM) and an MIC (Acinetobacter baumannii, A. baumannii HAV#653, Clinical) of 4 µg/mL (≈ 8.08 µM). The MIC (Acinetobacter baumannii, A. baumannii HAV#654, Clinical) was 8 µg/mL (≈ 16.2 µM), the MIC (Acinetobacter baumannii, A. baumannii HAV#655, Clinical) was 8 µg/mL (≈ 16.2 µM) and the MIC (Acinetobacter baumannii, A. baumannii HAV#656, Clinical) was 16 µg/mL (≈ 32.3 µM). It also gave an MIC (Acinetobacter baumannii, A. baumannii HAV#657, Clinical) of 4 µg/mL (≈ 8.08 µM), an MIC (Acinetobacter baumannii, A. baumannii HAV#658, Clinical) of 4 µg/mL (≈ 8.08 µM) and an MIC (Acinetobacter baumannii, A. baumannii HAV#659, Clinical) of 8 µg/mL (≈ 16.2 µM). It also gave an MIC (Acinetobacter baumannii, A. baumannii HAV#660, Clinical) of 16 µg/mL (≈ 32.3 µM), an MIC (Acinetobacter baumannii, A. baumannii HAV#661, Clinical) of 8 µg/mL (≈ 16.2 µM) and an MIC (Acinetobacter baumannii, A. baumannii HAV#662, Clinical) of 8 µg/mL (≈ 16.2 µM). The MIC (Acinetobacter baumannii, A. baumannii HAV#663, Clinical) was 4 µg/mL (≈ 8.08 µM), the MIC (Acinetobacter baumannii, A. baumannii HAV#664, Carbapenem R) was 16 µg/mL (≈ 32.3 µM) and the MIC (Enterococcus faecalis, E. faecalis HAV#602, Clincal) was ≤ 0.06 µg/mL. It also gave an MIC (Enterococcus faecalis, E. faecalis HAV#607, Clinical) of 2 µg/mL (≈ 4.04 µM), an MIC (Enterococcus faecalis, E. faecalis HAV#609, Clinical) of 2 µg/mL (≈ 4.04 µM) and an MIC (Enterococcus faecalis, E. faecalis HAV#611, Line R & Vanco R) of 0.125 µg/mL (≈ 0.252 µM). For the same compound, the MIC (Enterococcus faecalis, E. faecalis HAV#612, Line R) was ≤ 0.06 µg/mL, the MIC (Enterococcus faecalis, S. faecalis 5060, Line R & Vanco R) was 0.125 µg/mL (≈ 0.252 µM) and the MIC (Enterococcus faecalis, S. faecalis 5074, Line R) was ≤ 0.06 µg/mL. For the same compound, the MIC (Enterococcus faecium, E. faecium HAV#317, Clinical) was 0.25 µg/mL (≈ 0.505 µM), the MIC (Enterococcus faecium, E. faecium HAV#324, Clinical) was 1 µg/mL (≈ 2.02 µM) and the MIC (Enterococcus faecium, E. faecium HAV#327, Clinical) was 0.06 µg/mL (≈ 0.121 µM). The MIC (Enterococcus faecium, E. faecium HAV#328, Clinical) was 1 µg/mL (≈ 2.02 µM), the MIC (Enterococcus faecium, E. faecium HAV#329, Clinical) was 1 µg/mL (≈ 2.02 µM) and the MIC (Enterococcus faecium, E. faecium HAV#604, Clinical) was 0.06 µg/mL (≈ 0.121 µM). The MIC (Enterococcus faecium, VRE, E. faecium HAV#319, Line R & Vanco R) was ≤ 0.06 µg/mL, the MIC (Enterococcus faecium, VRE, E. faecium HAV#320, Clinical) was 0.25 µg/mL (≈ 0.505 µM) and the MIC (Enterococcus faecium, VRE, E. faecium HAV#326, Clinical) was 0.25 µg/mL (≈ 0.505 µM). It also gave an MIC (Escherichia coli, E. coli HAV#501, Clinical) of 8 µg/mL (≈ 16.2 µM), an MIC (Escherichia coli, E. coli HAV#503, Clinical) of 8 µg/mL (≈ 16.2 µM) and an MIC (Escherichia coli, E. coli HAV#511, Clinical) of 4 µg/mL (≈ 8.08 µM). It also gave an MIC (Escherichia coli, E. coli HAV#512, Clinical) of 8 µg/mL (≈ 16.2 µM), an MIC (Escherichia coli, E. coli HAV#513, Clinical) of 16 µg/mL (≈ 32.3 µM) and an MIC (Escherichia coli, E. coli HAV#514, Clinical) of 8 µg/mL (≈ 16.2 µM). For the same compound, the MIC (Escherichia coli, E. coli HAV#516, ESBL-producing) was 8 µg/mL (≈ 16.2 µM), the MIC (Haemophilus influenzae, ATCC9007, H. influenzae HAV#376, ATCC-9007) was 0.5 µg/mL (≈ 1.01 µM) and the MIC (K. pneumnoniae HAV#402, FQ-R) was 16 µg/mL (≈ 32.3 µM). For the same compound, the MIC (Klebsiella pneumoniae, K. pneumoniae HAV#041, Clinical, KPC) was 32 µg/mL (≈ 64.6 µM), the MIC (Klebsiella pneumoniae, K. pneumoniae HAV#402, FQ-R) was 16 µg/mL (≈ 32.3 µM) and the MIC (Klebsiella pneumoniae, K. pneumoniae HAV#404, Clinical) was 32 µg/mL (≈ 64.6 µM). The MIC (Klebsiella pneumoniae, K. pneumoniae HAV#405, Clinical) was 16 µg/mL (≈ 32.3 µM), the MIC (Klebsiella pneumoniae, K. pneumoniae HAV#406, Clinical) was 64 µg/mL (≈ 129 µM) and the MIC (Klebsiella pneumoniae, K. pneumoniae HAV#407, Clinical) was 128 µg/mL (≈ 259 µM). The MIC (Klebsiella pneumoniae, K. pneumoniae HAV#408, Clinical) was 128 µg/mL (≈ 259 µM) and the MIC (Klebsiella pneumoniae, K. pneumoniae HAV#409, ESBL-producing) was 16 µg/mL (≈ 32.3 µM).
